For one series, the system named is CDK8. The following applies: cited from earlier work.
Series [1] concerns acute myeloid leukemia (AML). The arrangement: method as in earlier work. To be noted: ref Cee et al., 2009, Crown, 2017, Pelish et al., 2015, Rzymski et al.; cited from earlier work.
Another series has as its target T1, CDK8/CycC (Homo sapiens, UniProt P49336).
T1 construct: purchased Reaction Biology Corp. (Kinase HotSpot service)
Briefly: In vitro kinase inhibition assay (Reaction Biology HotSpot, 10 dose IC50 singlet). The series is classed as biochemical. The following applies: for IC50 / inhibition at 20 µM: CDK8/CycC; for IC50: 10 dose IC50 singlet assay; for inhibition at 20 µM: compound at 20 µM, read-out: % enzyme inhibition ± SD (20 µM). The protocol:
Reaction Biology Corp. Kinase HotSpotSM service (http://www.reactionbiology.com) was used for the screening of tested compounds. […] Activity of kinases were assessed by the HotSpot assay platform, which contained specific kinase/substrate pairs along with required cofactors ([Abdelazem et al., 2015]; [Abdelazem et al., 2016]; [Al-Sanea et al., 2016a]; [Al-Sanea et al., 2015a]; [Al-Sanea et al., 2015b]; [Al-Sanea, El-Deeb & Lee, 2013]; [Park et al., 2014]).
The newly prepared phenylaminoquinolines 5a–i were biologically evaluated as potential CDK8/CycC complex inhibitors.

The structures appear in SMILES notation. Entries after “also recorded” stand apart in the source; their conditions may differ. Like-named read-outs stand apart in the source and are kept apart here.

The source of these data is publication PMC7075364, “Synthesis and biological evaluation of small molecule modulators of CDK8/Cyclin C complex with phenylaminoquinoline scaffold” (PeerJ, 2020).

The term IC50 denotes the concentration that inhibits the measured activity by half. The inhibition is the change of the read-out against control, counted positive when it falls. Broadly, the melting point is the temperature of the solid-liquid transition.

T1 sequence (P49336 whole entry): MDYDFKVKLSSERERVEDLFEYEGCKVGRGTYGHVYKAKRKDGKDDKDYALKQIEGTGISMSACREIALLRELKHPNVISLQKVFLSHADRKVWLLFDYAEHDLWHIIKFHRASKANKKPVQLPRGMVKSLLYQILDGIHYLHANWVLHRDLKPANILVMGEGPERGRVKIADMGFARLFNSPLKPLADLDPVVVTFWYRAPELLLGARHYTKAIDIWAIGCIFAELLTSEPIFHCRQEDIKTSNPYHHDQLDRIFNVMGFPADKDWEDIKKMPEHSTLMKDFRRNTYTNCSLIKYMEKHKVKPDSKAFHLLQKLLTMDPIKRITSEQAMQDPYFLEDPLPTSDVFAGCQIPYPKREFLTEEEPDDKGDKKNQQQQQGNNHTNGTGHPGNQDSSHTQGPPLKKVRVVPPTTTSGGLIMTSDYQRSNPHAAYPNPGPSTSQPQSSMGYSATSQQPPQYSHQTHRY
T1 sequence (P24863 whole entry partner): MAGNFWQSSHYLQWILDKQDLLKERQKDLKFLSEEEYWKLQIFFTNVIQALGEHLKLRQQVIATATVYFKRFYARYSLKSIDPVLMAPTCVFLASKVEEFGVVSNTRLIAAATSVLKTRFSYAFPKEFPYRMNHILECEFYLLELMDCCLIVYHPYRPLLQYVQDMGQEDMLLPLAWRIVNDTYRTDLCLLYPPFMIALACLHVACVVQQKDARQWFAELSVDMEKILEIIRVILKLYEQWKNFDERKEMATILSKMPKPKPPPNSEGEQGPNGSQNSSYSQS

With `CN1CCN(C(=O)c2ccc3cc(CCNc4ncnc5ccc(C#N)cc45)ccc3c2)CC1` [Senexin B], the IC50 in the series with CDK8 (ref McDermott et al., 2017, Rzymski et al., 2015, read-out: CDK8 modulation IC50) was 24 nM.

Take `CN(C)[C@H]1C[C@@]23CC[C@@]4(O2)C(=CC[C@]2(C)[C@@H](c5ccc6ccncc6c5)CC[C@H]24)C=C3[C@@H](O)[C@@H]1O` [cortistatin A]: the IC50 in the series on CDK8 (ATP-competitive, ref Cee et al., 2009, Crown, 2017, Pelish et al., 2015, Rzymski et al., read-out: CDK8 inhibitory activity IC50) was 15 nM. Besides, in series [1], the “anticancer activity in animal models of AML” value is recorded as “exhibited anticancer activity”.

`CCOC(=O)c1cnc2ccc(OC)cc2c1Nc1cccc(S(N)(=O)=O)c1` [5b, Ethyl 6-methoxy-4-((3-sulfamoylphenyl)amino)quinoline-3-carboxylate]: at CDK8/CycC, the IC50 result is “single digit micromolar potency” and the inhibition at 20 µM was 63.4 ± 2.31%. Moreover, the IC50 at CDK8/CycC (read-out: IC50) amounted to 5340 nM.

With `CCOC(=O)c1cnc2ccc(Br)cc2c1Nc1cccc(S(C)(=O)=O)c1` [5g, Ethyl 6-Bromo-4-(3-methanesulfonylphenylamino)-quinoline-3-carboxylate], at CDK8/CycC, the IC50 entry is “no CDK8/CycC complex inhibitory activity; also recorded: No inhibition” and the inhibition at 20 µM was found to be 22.4 ± 1.02%.

Regarding `CCOC(=O)c1cnc2cc(Cl)c(F)cc2c1Nc1cccc(S(N)(=O)=O)c1` [5c, Ethyl 7-chloro-6-fluoro-4-((3-sulfamoylphenyl)amino)quinoline-3-carboxylate], on CDK8/CycC, the IC50 result is “failed to inhibit” and the inhibition at 20 µM is 37.9 ± 1.31%.

As to `CCOC(=O)c1cnc2cc(Cl)c(F)cc2c1Nc1cccc(S(C)(=O)=O)c1` [5i, Ethyl 7-chloro-6-fluoro-4-((3-(methylsulfonyl)phenyl)amino)quinoline-3-carboxylate], at CDK8/CycC, the half-maximal inhibitory concentration (IC50) result was “failed to inhibit; also recorded: No inhibition” and the inhibition at 20 µM came out at 32 ± 0.82%.

As to `CCOC(=O)c1cnc2ccc(OC)cc2c1Nc1cccc(S(C)(=O)=O)c1` [5h, Ethyl 6-methoxy-4-((3-(methylsulfonyl)phenyl)amino)quinoline-3-carboxylate], at CDK8/CycC, the IC50 entry was “No inhibition” and the inhibition at 20 µM was 18.7 ± 0.48%.

Molecule `CCOC(=O)c1cnc2ccc(Br)cc2c1Nc1cccc(S(N)(=O)=O)c1` [5a, Ethyl 6-Bromo-4-(3-sulfamoyl-phenylamino)-quinoline-3-carboxylate] returned a melting point of 235.6 to 237.2 °C. In addition, the “fold decrease in potency relative to 5d” value on CDK8/CycC (CDK8/CycC IC50 of 5a compared with 5d) was determined as 6 fold. Besides, on CDK8/CycC, the 50% inhibitory concentration (IC50) entry is listed as “single digit micromolar potency” and the inhibition at 20 µM was 83.9 ± 1.83%. Also, the IC50 on CDK8/CycC (read-out: IC50) worked out at 3980 nM.

`CCOC(=O)c1cnc2ccc(Br)cc2c1Nc1cccc(S(=O)(=O)NC)c1` [5d, Ethyl 6-Bromo-4-((3-(N-methylsulfamoyl)phenyl)amino)quinoline-3-carboxylate] displayed a melting point of 212.9 to 214.3 °C. The 50% inhibitory concentration (IC50) on CDK8/CycC (read-out: IC50) was determined as 639 nM. For the same molecule, at CDK8/CycC, the inhibition at 20 µM amounted to 88.6 ± 0.97%.

As to `CCOC(=O)c1cnc2ccc(OC)cc2c1Nc1cccc(NS(C)(=O)=O)c1` [5e, Ethyl 6-methoxy-4-((3-(methylsulfonamido)phenyl)amino)quinoline-3-carboxylate], the IC50 at CDK8/CycC (read-out: IC50) amounted to 1420 nM. Moreover, the inhibition at 20 µM at CDK8/CycC came to 85.9 ± 0.94%.

For the molecule `CCOC(=O)c1cnc2cc(Cl)c(F)cc2c1Nc1cccc(NS(C)(=O)=O)c1` [5f, Ethyl 7-chloro-6-fluoro-4-((3-(methylsulfonamido)phenyl)amino)quinoline-3-carboxylate], on CDK8/CycC, the IC50 entry was “failed to inhibit; also recorded: No inhibition” and the inhibition at 20 µM was 27.2 ± 8.46%.
